Test results as given in EP4810038A1, “METHOD FOR TREATING ALK-POSITIVE OR ROS1-POSITIVE NON-SMALL CELL LUNG CANCER” (Shenzhen TargetRx Co., Ltd., priority 2023, dated 2025).
Values joined by “and” are separate entries in the source; they are usually repeats but may differ in a detail not shown here. Equal entries are not always repeated. “Also recorded” adds a separate entry of the source.

Tested on: ALK-positive advanced NSCLC
Experiment: Phase I clinical trial, indication expansion phase: efficacy in ALK-positive patients (group A cohort 1: prior crizotinib only; cohort 2: prior second-generation ALK inhibitor; group C: ALK inhibitor naive)
Format: in vivo, human
Procedure: The anti-tumor efficacy is evaluated according to RECIST version 1.1. For patients initially evaluated as having a complete response (CR) or partial response (PR), efficacy should be confirmed at least 4 weeks later. In the patients with asymptomatic central nervous system (CNS) metastases, in addition to evaluating 5 extracranial target lesions, up to 5 intracranial target lesions will also be evaluated. The specific indicators are as follows:
"ORR" includes CR and PR, and is defined as the proportion of patients who achieve complete response or partial response.
"IC-ORR" includes CR or PR for confirmed intracranial lesions, and is defined as the proportion of the patients with complete response or partial response of intracranial lesions among the patients with intracranial lesions.
"DCR" is defined as the proportion of the patients who achieve response (PR+CR) and stable disease (SD) after a treatment.
"IC-DCR" is defined as the proportion of the patients who achieve intracranial response (PR+CR), intracranial stable disease (SD), and […] after a treatment among the patients with intracranial lesions.
"DOR" is defined as the time from the first assessment of CR or PR to progressive disease or death, and is only applicable to the patients who achieve response.
"IC-DOR" is defined as the time from the first assessment of intracranial CR or intracranial PR to progressive disease or death, and is only applicable to the patients whose intracranial lesions achieve response.
"TTR" is defined as the time from patient enrollment (first dose of investigational drug) to tumor response (CR/PR), based on the patients with objective response.
"IC-TTR" is defined as the time from patient enrollment (first dose of investigational drug) to intracranial tumor response (IC-CR/PR), based on the patients with intracranial objective response.
"PFS" is defined as the time from the first administration of the investigational drug to progressive disease (PD) or death from any cause, whichever comes first.
In the indication expansion phase, an appropriate administration regimen was determined based on the safety, tolerability, PK and efficacy data from the dose escalation phase and dose expansion phase, and the expansion was performed within the target population.
The result of a pregnancy test conducted ≤7 days prior to the first administration of the investigational drug must be negative for the women of childbearing age.

[1] = A cohort 2, prior 3 or more second-generation ALK inhibitors, chemotherapy (N=11)
[2] = A cohort 2, prior 3 or more second-generation ALK inhibitors, no chemotherapy (N=7)
[3] = A cohort 2, prior one second-generation ALK inhibitor, chemotherapy (N=14)
[4] = A cohort 2, prior one second-generation ALK inhibitor, no chemotherapy (N=26)
[5] = A cohort 2, prior two second-generation ALK inhibitors, chemotherapy (N=15)
[6] = A cohort 2, prior two second-generation ALK inhibitors, no chemotherapy (N=24)
[7] = intracranial measurable lesions, Group A, cohort 1 (n=4)

[2H]C([2H])([2H])n1nc2c(c1C#N)-c1cnc(N)c(c1)O[C@H](C)c1cc(F)ccc1C(=O)N(C)C2 [compound A, (10R)-7-amino-12-fluoro-2-(methyl-d3)-10,16-dimethyl-15-oxo-10,15,16,17-tetrahydro-2H-8,4-(metheno)pyrazolo[4,3-h][2,5,11]benzoxadiazacyclotetradecine-3-carbonitrile]
ORR (14 patients previously received crizotinib with or without chemotherapy): 71.4% | ORR (33 ALK TKI-treatment naive patients): 84.8% | overall ORR (97 patients previously received a second-generation TKI): 39.2% | BOR CR [1]: 0 n (%) | BOR NE [1]: 0 n (%) | BOR PD [1]: 1 (9.1) n (%) | BOR PR [1]: 3 (27.3) n (%) | BOR SD [1]: 7 (63.6) n (%) | Confirmed ORR (95% CI) [1]: 3 (27.3) (6.0, 61.0) n (%) | DCR (95% CI) [1]: 10 (90.9) (58.7, 99.8) n (%) | Median TTR (range) [1]: 1.35 (1.28, 7.00) months | BOR CR [2]: 0 n (%) | BOR NE [2]: 1 (14.3) n (%) | BOR PD [2]: 0 n (%) | BOR PR [2]: 3 (42.9) n (%) | BOR SD [2]: 3 (42.9) n (%) | Confirmed ORR (95% CI) [2]: 3 (42.9) (9.9, 81.6) n (%) | DCR (95% CI) [2]: 6 (85.7) (42.1, 99.6) n (%) | Median TTR (range) [2]: 1.35 (1.35, 1.45) months | BOR CR [3]: 0 n (%) | BOR NE [3]: 1 (7.1) n (%) | BOR PD [3]: 4 (28.6) n (%) | BOR PR [3]: 6 (42.9) n (%) | BOR SD [3]: 3 (21.4) n (%) | Confirmed ORR (95% CI) [3]: 6 (42.9) (17.7, 71.1) n (%) | DCR (95% CI) [3]: 9 (64.3) (35.1, 87.2) n (%) | Median TTR (range) [3]: 2.07 (1.35, 6.90) months | BOR CR [4]: 0 n (%) | BOR NE [4]: 0 n (%) | BOR PD [4]: 6 (23.1) n (%) | BOR PR [4]: 9 (34.6) n (%) | BOR SD [4]: 11 (42.3) n (%) | Confirmed ORR (95% CI) [4]: 9 (34.6) (17.2, 55.7) n (%) | DCR (95% CI) [4]: 20 (76.9) (56.4, 91.0) n (%) | Median TTR (range) [4]: 1.38 (1.28, 6.80) months | BOR CR [5]: 0 n (%) | BOR NE [5]: 0 n (%) | BOR PD [5]: 2 (13.3) n (%) | BOR PR [5]: 6 (40.0) n (%) | BOR SD [5]: 7 (46.7) n (%) | Confirmed ORR (95% CI) [5]: 6 (40.0) (16.3, 67.7) n (%) | DCR (95% CI) [5]: 13 (86.7) (59.5, 98.3) n (%) | Median DOR (95% CI) [5]: 12.45 (5.39, -) months | Median TTR (range) [5]: 1.40 (1.31, 2.79) months | BOR CR [6]: 0 n (%) | BOR NE [6]: 0 n (%) | BOR PD [6]: 3 (12.5) n (%) | BOR PR [6]: 11 (45.8) n (%) | BOR SD [6]: 10 (41.7) n (%) | Confirmed ORR (95% CI) [6]: 11 (45.8) (25.6, 67.2) n (%) | DCR (95% CI) [6]: 21 (87.5) (67.6, 97.3) n (%) | Median DOR (95% CI) [6]: 12.48 (2.76, -) months | Median TTR (range) [6]: 1.38 (1.35, 9.72) months | intracranial ORR (ALK TKI-naive, 8 patients with measurable CNS lesions at baseline): 75% | median PFS (cohort 2 of group A, FAS, as of April 17, 2024): 6.87 months | BOR CR [7]: 1 n (%) and 1 (25.0) n (%) | BOR NE [7]: 0 n (%) | BOR PD [7]: 0 n (%) | BOR PR [7]: 1 n (%) and 1 (25.0) n (%) | BOR SD [7]: 2 (50.0) n (%) | Confirmed ORR (95% CI) [7]: 2 (50.0) (6.8, 93.2) n (%) | DCR (95% CI) [7]: 4 (100) (39.8, 100.0) n (%) | Median DOR (95% CI) [7]: not reached; also recorded: NR (NR, NR) | Median TTR (range) [7]: 1.36 months and 1.36 (1.35, 1.38) months
